Measured values from patent US7169763B2, “Cytochrome P450 3A inhibitors and enhancers” (priority 2002, dated 2007).

Key:
[1] = system: CYP3A; assay: Determination of CYP3A activity by erythromycin demethylation method (rat liver homogenate/microsomes); set-up: CYP3A Activity (percentage of control): dose or concentration left out as unconfirmed; settings: for inhibitory effects on rat liver CYP3A (in words): summary of Table 1; for enhancing effects on rat hepatic CYP3A (in words): summary of Table 2
[2] = in vivo; settings: beagle, dog, po, 10 mg/kg
[3] = inhibitor concentration 0.004, Table 1 Inhibition
[4] = inhibitor concentration 0.04, Table 1 Inhibition
[5] = inhibitor concentration 0.4, Table 1 Inhibition
[6] = inhibitor concentration 1.55, Table 1 Inhibition
[7] = inhibitor concentration 4.3, Table 1 Inhibition
[8] = inhibitor concentration 77.07, Table 1 Inhibition
[9] = inhibitor concentration 0.1, Table 1 Inhibition

Row | CYP3A Activity (percentage of control) [1, 3] | CYP3A Activity (percentage of control) [1, 4] | CYP3A Activity (percentage of control) [1, 5] | Molecule | other results
1 | 60.33 ± 2.18 percentage of control | 70.50 ± 0.59 percentage of control | 53.89 ± 4.43 percentage of control | CC(=O)OCCCc1ccccc1 [3-phenylpropyl acetate] | –
2 | 88.22 ± 0.00 percentage of control | 94.10 ± 10.37 percentage of control | 106.51 ± 8.16 percentage of control | O=c1cc(-c2ccc(O)c(O)c2)oc2cc(O)cc(O)c12 [Luteolin] | CYP3A Activity (percentage of control) ([1]; inhibitor concentration 1.56, Table 1 Inhibition): 36.32 ± 1.26 percentage of control
3 | 81.63 ± 5.21 percentage of control | 62.37 ± 12.33 percentage of control | 60.54 ± 15.51 percentage of control | O=C1C[C@@H](c2ccc(O)cc2)Oc2cc(O)cc(O)c21 [Nariagenin] | CYP3A Activity (percentage of control) [1, 6]: 47.07 ± 9.87 percentage of control
4 | 71.26 ± 1.95 percentage of control | 60.28 ± 1.95 percentage of control | 42.53 ± 0.49 percentage of control | CC(Cc1ccc(O)c(O)c1)C(C)Cc1ccc(O)c(O)c1 (stereo not drawn) [Nordihydroguaiaretic Acid] | CYP3A Activity (percentage of control) ([1]; inhibitor concentration 3.09, Table 1 Inhibition): 8.96 ± 1.79 percentage of control; inhibitory effects on rat liver CYP3A (in words) [1]: particularly effective
5 | 52.96 ± 1.15 percentage of control | 54.64 ± 5.16 percentage of control | – | O=c1cc(-c2ccc(O)cc2)oc2cc(O)cc(O)c12 [apigenin] | CYP3A Activity (percentage of control) ([1]; enhancer concentration 0.22, Table 2 Enhancement): 108.62 ± 1.28 percentage of control; CYP3A Activity (percentage of control) [1, 9]: 59.94 ± 2.50 percentage of control; enhancing effects on rat hepatic CYP3A (in words) [1]: particularly effective
6 | 78.78 ± 2.76 percentage of control | 92.06 ± 0.77 percentage of control | – | COc1ccc(-c2coc3cc(O)ccc3c2=O)cc1 [formononetin] | CYP3A Activity (percentage of control) ([1]; enhancer concentration 0.123, Table 2 Enhancement): 113.74 ± 8.87 percentage of control; CYP3A Activity (percentage of control) [1, 9]: 70.37 ± 5.79 percentage of control; enhancing effects on rat hepatic CYP3A (in words) [1]: particularly effective
7 | 64.62 ± 1.53 percentage of control | 66.83 ± 5.03 percentage of control | – | O=c1c(O[C@@H]2O[C@H](CO)[C@@H](O)[C@H](O)[C@H]2O)c(-c2ccc(O)c(O)c2)oc2cc(O)cc(O)c12 [isoquercitrin] | CYP3A Activity (percentage of control) ([1]; inhibitor concentration 0.2, Table 1 Inhibition): 51.46 ± 6.68 percentage of control
8 | 89.00 ± 12.02 percentage of control | 84.87 ± 6.93 percentage of control | 90.00 ± 4.20 percentage of control | O=c1ccc2ccc(O)cc2o1 [umbelliferone] | CYP3A Activity (percentage of control) ([1]; inhibitor concentration 1.84, Table 1 Inhibition): 76.22 ± 2.73 percentage of control; CYP3A Activity (percentage of control) ([1]; inhibitor concentration 5.43, Table 1 Inhibition): 98.85 ± 14.19 percentage of control; CYP3A Activity (percentage of control) ([1]; inhibitor concentration 16.96, Table 1 Inhibition): 90.33 ± 1.63 percentage of control

Continued, molecule first:

Row | Molecule | CYP3A Activity (percentage of control) [1, 3] | CYP3A Activity (percentage of control) [1, 4] | CYP3A Activity (percentage of control) [1, 5] | other results
9 | Oc1cc(O)c2c(c1)O[C@H](c1ccc(O)c(O)c1)[C@@H](O)C2 (relative stereo) [(+)-catechin, 2R-trans-2-(3,4-dihydroxyphenyl)-3,4-dihydro-2H-1-benopyran-3,5,7-triol] | 59.31 ± 2.94 percentage of control | 62.70 ± 8.53 percentage of control | 45.42 ± 6.13 percentage of control | inhibitory effects on rat liver CYP3A (in words) [1]: particularly effective
10 | Oc1cc(O)c2c(c1)O[C@@H](c1ccc(O)c(O)c1)[C@@H](O)C2 [(+)-epicatechin] | – | – | – | CYP3A Activity (percentage of control) ([1]; inhibitor concentration 0.45, Table 1 Inhibition): 14.66 ± 7.66 percentage of control; CYP3A Activity (percentage of control) ([1]; inhibitor concentration 1.41, Table 1 Inhibition): 23.29 ± 5.28 percentage of control; CYP3A Activity (percentage of control) [1, 6]: 27.96 ± 5.07 percentage of control
11 | O=C(O)c1cc(O)c(O)c(O)c1 [Gallic acid] | – | – | – | CYP3A Activity (percentage of control) [1, 7]: 43.86 ± 4.45 percentage of control; CYP3A Activity (percentage of control) ([1]; inhibitor concentration 24.66, Table 1 Inhibition): 43.65 ± 0.57 percentage of control; CYP3A Activity (percentage of control) [1, 8]: 44.09 ± 4.39 percentage of control; inhibitory effects on rat liver CYP3A (in words) [1]: particularly effective
12 | CC1(C)[C@@H](O[C@H]2O[C@H](C(=O)O)[C@@H](O)[C@H](O)[C@H]2O[C@@H]2O[C@H](C(=O)O)[C@@H](O)[C@H](O)[C@H]2O)CC[C@]2(C)[C@H]3C(=O)C=C4[C@@H]5C[C@@](C)(C(=O)O)CC[C@]5(C)CC[C@@]4(C)[C@]3(C)CC[C@@H]12 [Glycyrrhizin] | – | – | – | CYP3A Activity (percentage of control) ([1]; inhibitor concentration 0.269, Table 1 Inhibition): 42.96 ± 3.75 percentage of control
13 | CCCCCCCCCCCCO [Lauryl alcohol] | – | – | – | CYP3A Activity (percentage of control) ([1]; inhibitor concentration 739.88, Table 1 Inhibition): 18.58 ± 1.46 percentage of control; inhibitory effects on rat liver CYP3A (in words) [1]: particularly effective
14 | C[C@@H]1O[C@@H](O[C@H]2[C@H](Oc3cc(O)c4c(c3)O[C@H](c3ccc(O)cc3)CC4=O)O[C@H](CO)[C@@H](O)[C@@H]2O)[C@H](O)[C@H](O)[C@H]1O [Narigin] | – | – | – | CYP3A Activity (percentage of control) ([1]; inhibitor concentration 21.67, Table 1 Inhibition): 56.22 ± 22.87 percentage of control; inhibitory effects on rat liver CYP3A (in words) [1]: particularly effective
15 | CC1(C)CC[C@]2(C(=O)O)CC[C@]3(C)C(=CC[C@@H]4[C@@]5(C)CC[C@H](O)C(C)(C)[C@@H]5CC[C@]43C)[C@@H]2C1 [Oleanolic acid] | – | – | – | CYP3A Activity (percentage of control) ([1]; inhibitor concentration 0.522, Table 1 Inhibition): 55.95 ± 4.45 percentage of control; CYP3A Activity (percentage of control) [1, 8]: 44.64 ± 7.92 percentage of control
16 | CCC(C)(C)C(=O)O[C@H]1C[C@@H](C)C=C2C=C[C@H](C)[C@H](CC[C@@H]3C[C@@H](O)CC(=O)O3)[C@H]21 [Simvastatin] | – | – | – | MRT [2]: 2.79 h; Tmax [2]: 45 min; half-life [2]: 88.2 min
17 | O=c1cc(-c2ccccc2)oc2cc(O)c(O)c(O)c12 [baicalein] | 84.66 ± 3.04 percentage of control | 81.59 ± 4.76 percentage of control | – | CYP3A Activity (percentage of control) [1, 9]: 64.47 ± 4.75 percentage of control
18 | CC(C)[C@@H](C)/C=C/[C@@H](C)[C@H]1CC[C@H]2C3=CC=C4C[C@@H](O)CC[C@]4(C)[C@H]3CC[C@]12C [ergosterol] | 64.59 ± 3.34 percentage of control | 63.71 ± 11.57 percentage of control | 59.57 ± 5.41 percentage of control | –
19 | COc1ccc([C@@H]2CC(=O)c3c(O)cc(O)cc3O2)cc1O [hesperetin] | 84.66 ± 3.04 percentage of control | 75.89 ± 3.31 percentage of control | 48.25 ± 4.62 percentage of control | inhibitory effects on rat liver CYP3A (in words) [1]: particularly effective
20 | COc1ccc([C@@H]2CC(=O)c3c(O)cc(O[C@@H]4O[C@H](CO[C@@H]5O[C@@H](C)[C@H](O)[C@@H](O)[C@H]5O)[C@@H](O)[C@H](O)[C@H]4O)cc3O2)cc1O [hesperidin] | 24.05 ± 5.06 percentage of control | 103.79 ± 6.37 percentage of control | 80.75 ± 4.18 percentage of control | inhibitory effects on rat liver CYP3A (in words) [1]: particularly effective
21 | O=c1c(O)c(-c2ccc(O)cc2)oc2cc(O)cc(O)c12 [kaempferol] | 73.03 ± 2.30 percentage of control | 76.57 ± 3.83 percentage of control | 80.11 ± 8.11 percentage of control | CYP3A Activity (percentage of control) ([1]; enhancer concentration 1.46, Table 2 Enhancement): 111.35 ± 27.88 percentage of control
22 | O=c1c(O)c(-c2ccc(O)c(O)c2)oc2cc(O)cc(O)c12 [quercetin] | 75.76 ± 7.97 percentage of control | 77.52 ± 15.98 percentage of control | 91.62 ± 0.76 percentage of control | –
23 | C[C@@H]1O[C@@H](Oc2c(-c3ccc(O)c(O)c3)oc3cc(O)cc(O)c3c2=O)[C@H](O)[C@H](O)[C@H]1O [quercitrin] | 55.06 ± 5.34 percentage of control | 73.56 ± 5.96 percentage of control | 98.67 ± 7.51 percentage of control | –
24 | C=C[C@H]1[C@H](O[C@@H]2O[C@H](CO)[C@@H](O)[C@H](O)[C@H]2O)OC=C2C(=O)OCC[C@]21O [swertiamarin] | 79.71 ± 1.76 percentage of control | 67.88 ± 0.49 percentage of control | 65.63 ± 1.29 percentage of control | –
25 | O=c1cc(-c2ccccc2)oc2c1ccc1ccccc12 [α-Naphthoflavone] | – | – | – | CYP3A Activity (percentage of control) ([1]; inhibitor concentration 1.24, Table 1 Inhibition): 43.52 ± 2.93 percentage of control
26 | CC1=CCC(C(C)(C)O)CC1 (stereo not drawn) [α-terpineol] | – | – | – | CYP3A Activity (percentage of control) ([1]; inhibitor concentration 501.93, Table 1 Inhibition): 9.29 ± 1.07 percentage of control
27 | O=c1cc(-c2ccccc2)oc2ccc3ccccc3c12 [β-Naphthoflavone] | – | – | – | CYP3A Activity (percentage of control) ([1]; inhibitor concentration 0.87, Table 1 Inhibition): 42.41 ± 4.08 percentage of control
28 | C=CC(=C)CCC=C(C)C [β-myrcene] | – | – | – | CYP3A Activity (percentage of control) [1, 7]: 55.95 ± 4.45 percentage of control; inhibitory effects on rat liver CYP3A (in words) [1]: particularly effective
29 | Luteolin-7-glycoside | – | 98.71 ± 19.74 percentage of control | – | CYP3A Activity (percentage of control) ([1]; enhancer concentration 0.004, Table 2 Enhancement): 122.89 ± 40.06 percentage of control; CYP3A Activity (percentage of control) ([1]; enhancer concentration 0.1, Table 2 Enhancement): 113.09 ± 5.99 percentage of control; CYP3A Activity (percentage of control) ([1]; inhibitor concentration 0.0078, Table 1 Inhibition): 46.68 ± 0.17 percentage of control; enhancing effects on rat hepatic CYP3A (in words) [1]: particularly effective
